# Test results as given in PMC5756575, “In Vitro Biotransformation, Safety, and Chemopreventive Action of Novel 8-Methoxy-Purine-2,6-Dione Derivatives” (Applied Biochemistry and Biotechnology, 2017).
# Read-outs that look alike come from different tables or passages of the source.
# Experiments:
# rat liver microsomes = test: Microsomal stability assay; assay type: in vitro ADME
# Procedure: Compounds 1 and 3 were studied in a biotransformation assay using rat liver microsomes following procedures described previously. The reagents used in this assay were levallorphan (internal standard) and NADPH-regenerating system, which contained phosphate buffer (pH 7.4), NADP^+, glucose-6-phosphate, and glucose-6-phosphate dehydrogenase. The final protein concentration in the assay was 0.4 mg/mL. Compounds 1 and 3 were tested at a final concentration of 20 μM.
# The amount of a parental compound remaining in a solution after biotransformation was monitored using LC-MS/MS as described previously in “Cunninghamella Biotransformation Assay.” Graphs representing ln of percentage of parent compound remaining versus incubation time were drawn to calculate in vitro half-time (t1/2) from the slope of linear regression. To obtain intrinsic clearance (Clint) of a tested compound in rat liver microsomal assay, t1/2 previously calculated was substituted at the equation Clint = [(Vmic/Pmic) × 0.693/t1/2], being Vmic and Pmic the volume of incubation in microliters and the amount of incubated protein in milligrams, respectively.
# (§1) Agilent 1100 HPLC system (Agilent Technologies, Waldbronn, Germany) equipped with a Xbridge™ C18 analytical column (2.1 × 30 mm, […]; Waters, Dublin, Ireland) was used in the chromatographic separation of LC-MS/MS analysis. An elution gradient of acetonitrile and water, with 0.1% of formic acid, was used as a mobile phase. MS spectra were taken at Applied Biosystems MDS Sciex API 200 triple quadrupole mass analyzer (Concord, Ontario, Canada) with an electrospray ionization (ESI) interface between HPLC and MS.
# [1] = test system: Cunninghamella echinulata NRRL 1384; test: Cunninghamella biotransformation assay, C. echinulata; assay type: in vitro ADME; conditions: 0.5 mg/mL, 7-day incubation, LC-MS/MS
# Procedure: (§2) Three different strains of Cunninghamella were used: Cunninghamella echinulata NRRL 1384, Cunninghamella blakesleeana 1908 DMS, and Cunninghamella elegans 1906 DMS. The first was provided by Dr. A.J. Carnell (University of Liverpool, UK), whereas the two remaining were purchased from Deutsche Sammlung von Mikroorganismen und Zellkulturen GmbH (DMSZ, Braunschweig, Germany).
# (§3) Cunninghamella strains were cultivated on solid potato dextrose agar (PDA) plates at 28 °C. After 4 days, a liquid fermentation basal medium was prepared by the addition of 6 g of D-glucose, 1.5 g of NaCl, 1.5 g of yeast extract from Saccharomyces cerevisiae, and 1.5 g of K2HPO4 to 300 mL of distilled water. Aliquots of 24.5 mL of medium were inoculated with 300 μL of suspension of fungal spores obtained after wetting colonies in PDA. The fungi were incubated with shaking until the formation of spherical clumps.
# (§4) Compounds 2–4 were evaluated in this experiment. Once microorganisms formed spherical clumps in the preliminary incubation, the corresponding tested compound was added to the broth and the mixture was incubated for 7 days. Two control experiments were also performed, in the absence of compound and fungus, respectively. Biotransformation progress was monitored by TLC and by liquid chromatography electrospray ionization-tandem mass spectrometry (LC-MS/MS). Monitoring was performed at four different incubation times: 30 min, 3 days, 5 days, and 7 days.
# (§5) To analyze metabolites in LC-MS/MS, an aliquot of 500 μL of filtered sample was taken and extracted with 500 μL of dichloromethane. The organic fraction was dried with sodium sulfate, filtered, and evaporated. The obtained residue was analyzed in LC-MS/MS. At the end of experiment, all the remaining medium was extracted with 25 mL of dichloromethane after separating the fungal clumps by filtration over cellulose filters.
# as §1
# [2] = test system: Cunninghamella blakesleeana 1908 DMS; test: Cunninghamella biotransformation assay, C. blakesleeana; assay type: in vitro ADME; conditions: 0.5 mg/mL, 7-day incubation, LC-MS/MS
# Procedure: as §2, §3, §4, §5, §1
# [3] = test system: Cunninghamella elegans 1906 DMS; test: Cunninghamella biotransformation assay, C. elegans; assay type: in vitro ADME; conditions: 0.5 mg/mL, 7-day incubation, LC-MS/MS
# Procedure: as §2, §3, §4, §5, §1
# [4] = test system: Salmonella typhimurium TA100; test: S. typhimurium antimutagenicity assay against NQNO; assay type: cell-based; conditions: for Number of revertants per plate, Mean ± SD: antimutagenicity, NQNO line = NQNO as a single compound
# Description: (§6) In the Ames test, Salmonella typhimurium TA100 strain was used. This strain has a base-pair substitution that can be reverted by mutations at GC pairs. In addition, it contains mutations at uvrB-bio and rfa genes to eliminate excision repair mechanisms and to make the bacteria more permeable to chemicals, respectively. Finally, TA100 also includes pKM101 plasmid, which enhances both chemical and UV-induced mutagenesis via an increase in the error-prone recombinational DNA repair pathway. TA100 strain of S. typhimurium was provided by Dr. T. Nohmi (Division of Genetics and Mutagenesis, National Institute of Hygienic Sciences, Tokyo, Japan). V. harveyi and S. typhimurium bacterial cultures were maintained at 30 and 37 °C, respectively.
# (§7) It causes point mutations at the genome as it induces G:C → A:T transitions in Vibrio harveyi strains and in other bacteria such as Escherichia coli and S. typhimurium. […] Next, its working solution was prepared in sterile water, being 40 ng/mL its final concentration.
# (§8) Procedure followed in the V. harveyi antimutagenicity assay was similar to the mutagenicity method described before. […] The results were expressed as the inhibition percentage of mutagenic effect, which was calculated with the formula: 100 − [(R 1/R 2) × 100], where R 1 is the number of revertants per plate in the presence of both mutagen and tested substance, and R 2 is the number of revertants per plate in the presence of mutagen. […] S. typhimurium antimutagenicity assay was based on similar assumptions as the V. harveyi antimutagenicity test. In this case, the chemopreventive activity was determined at two concentrations of a tested compounds and a standard mutagen, i.e., 40 and 500 ng/mL.
# Vibrio harveyi BB7XM [5] = test: Vibrio harveyi mutagenicity assay, BB7XM; assay type: cell-based; conditions: 40 ng/mL
# Procedure: (§9) From them, 0.2 mM working solutions were prepared by dilution with water. […] Working solutions were prepared by 1:100 dilution of stock solution in water, and final compound concentration assayed was 40 ng/mL.
# (§10) Four Vibrio harveyi strains were used in this study: a wild-type BB7 (naturally found in the Baltic Sea) and three genetically modified strains, namely BB7M (obtained by the introduction of pAB1273 plasmid containing the genes mucA and mucB to enhance the error-prone DNA repair), BB7X (hypersensitive to UV radiation after genetic modification with Tn5TpMCS), and BB7XM (containing the two abovementioned modifications). These strains were kindly provided by Prof. G. Węgrzyn (Department of Molecular Biology, University of Gdańsk, Poland).
# as §7
# (§11) To perform the V. harveyi mutagenicity test, 10 μL of a working solution of the tested compound (100 μg/mL) were added to V. harveyi bacterial culture (OD600 = 0.1) in NaCl-containing BOSS liquid medium, being 40 ng/mL the final concentration of the tested compound. […] Then, an inoculum containing 5 × 10^6 cells was added to solid BOSS agar plate supplemented with neomycin sulfate at a final concentration of 100 μg/mL. Samples were left incubating 48 h at 30 °C, and revertant colonies were counted manually.
# [6] = test system: Salmonella typhimurium TA100; test: Ames mutagenicity test; assay type: cell-based
# Procedure: From them, 0.2 mM working solutions were prepared by dilution with water. […]
# as §6
# It causes point mutations at the genome as it induces G:C → A:T transitions in Vibrio harveyi strains and in other bacteria such as Escherichia coli and S. typhimurium. […]
# S. typhimurium was cultivated in a fresh medium 12 h prior to a test. To perform mutagenicity assay, 100 μL of an overnight culture (containing approx. 1 × 10^8 to 2 × 10^8 bacteria) were inoculated along with 50 μL of a tested compound in 2 mL of top agar supplemented with traces of histidine and of biotin. Then the mixture was added over the surface of GM agar plates and was left incubating 48 h at 37 °C. Afterwards, the colonies were counted manually.
# Vibrio harveyi BB7M [7] = conditions: 40 ng/mL
# Procedure: as §9, §10, §7, §11
# Vibrio harveyi BB7X [8] = conditions: 40 ng/mL
# Procedure: as §9, §10, §7, §11
# Vibrio harveyi BB7 [9] = conditions: BB7, 40 ng/mL
# Procedure: as §9, §10, §7, §11
# Vibrio harveyi BB7X [10] = test: Vibrio harveyi antimutagenicity assay against NQNO, BB7X; assay type: cell-based; conditions: compound 40 ng/mL + NQNO 40 ng/mL
# Description: as §10, §7, §8
# Vibrio harveyi BB7 [11] = test: Vibrio harveyi antimutagenicity assay against NQNO, BB7; assay type: cell-based
# Description: as §10, §7, §8
# Vibrio harveyi BB7XM [12] = assay type: cell-based; conditions: compound 40 ng/mL + NQNO 40 ng/mL
# Description: as §10, §7, §8
# Vibrio harveyi BB7M [13] = test: Vibrio harveyi antimutagenicity assay against NQNO, BB7M; assay type: cell-based; conditions: compound 40 ng/mL + NQNO 40 ng/mL
# Description: as §10, §7, §8
# [14] = TA100, compound and NQNO 40 ng/mL
# [15] = TA100, compound and NQNO 500 ng/mL
# [16] = TA100, 500 ng/mL (NQNO control stated as 40 ng/mL in method)
# [17] = antimutagenicity, NQNO line = NQNO as a single compound
compound,measurement,setting,value
COc1nc2c(c(=O)n(C)c(=O)n2C)n1CCCC(N)=O [3-M1],% content among metabolites,rat liver microsomes; rat microsomal biotransformation after 30 min of incubation,100%
same,% of compound/metabolite in C. echinulata,[1],1.5%
COc1nc2c(c(=O)n(C)c(=O)n2C)n1CCCC(=O)NCc1ccc(O)cc1 [3-M4],% of compound/metabolite in C. blakesleeana,[2],– – – 4.6%
same,% of compound/metabolite in C. echinulata,[1],4.2%
same,% of compound/metabolite in C. elegans,[3],– – – 0.6%
COc1nc2c(c(=O)n(C)c(=O)n2C)n1CCCC(=O)NCc1ccccc1O [3-M2],% of compound/metabolite in C. echinulata,[1],1.6%
"COc1nc2c(c(=O)n(C)c(=O)n2C)n1CC(=O)O [Compound 1, 2-(8-methoxy-1,3-dimethyl-2,6-dioxo-purin-7-yl)acetic acid]",metabolic stability in microsomal biotransformation (in words),"rat liver microsomes; rat liver microsomes, 1 h of incubation",metabolically stable
same,% inhibition of NQNO mutagenicity,[4]; [14],88%
same,% inhibition of NQNO mutagenicity,[4]; [15],95%
same,"Number of revertants per plate, Mean ± SD",[4]; [14],10 ± 3
same,"Number of revertants per plate, Mean ± SD",[4]; [15],5 ± 3
same,MI (mutagenicity index),Vibrio harveyi BB7XM [5]; mutagenic if MI above 2.0,1.1
same,"Number of revertants per plate, Mean ± SD",Vibrio harveyi BB7XM [5]; mutagenicity,37 ± 11
same,"Number of revertants per plate, Mean ± SD","[6]; TA100, 40 ng/mL",12 ± 5
same,MI (mutagenicity index),"[6]; TA100, 40 ng/mL, mutagenic if MI >2.0",0.3
same,MI (mutagenicity index),[6]; [16],0.6
same,"Number of revertants per plate, Mean ± SD",[6]; [16],16 ± 3
same,MI (mutagenicity index),Vibrio harveyi BB7M [7]; mutagenic if MI above 2.0,1.2
same,"Number of revertants per plate, Mean ± SD",Vibrio harveyi BB7M [7]; mutagenicity,33 ± 8
same,MI (mutagenicity index),Vibrio harveyi BB7X [8]; mutagenic if MI above 2.0,1.4
same,"Number of revertants per plate, Mean ± SD",Vibrio harveyi BB7X [8]; mutagenicity,30 ± 1
same,MI (mutagenicity index),Vibrio harveyi BB7 [9]; mutagenic if MI above 2.0,0.9
same,"Number of revertants per plate, Mean ± SD",Vibrio harveyi BB7 [9]; mutagenicity,12 ± 2
same,"Number of revertants per plate, Mean ± SD",Vibrio harveyi BB7X [10]; [17],28 ± 7
same,% inhibition of NQNO mutagenicity,Vibrio harveyi BB7X [10],74%
same,% inhibition of NQNO mutagenicity,"Vibrio harveyi BB7 [11]; BB7, compound 40 ng/mL + NQNO 40 ng/mL",20%
same,"Number of revertants per plate, Mean ± SD","Vibrio harveyi BB7 [11]; antimutagenicity, BB7, compound 40 ng/mL + NQNO 40 ng/mL, NQNO line = NQNO as a single compound",44 ± 6
same,"chemopreventive (antimutagenic) effect, class","Vibrio harveyi BB7 [11]; wild BB7 strain, against NQNO",moderate or a close to moderate
same,"Number of revertants per plate, Mean ± SD",Vibrio harveyi BB7XM [12]; [17],69 ± 10
same,% inhibition of NQNO mutagenicity,Vibrio harveyi BB7XM [12],10%
same,"Number of revertants per plate, Mean ± SD",Vibrio harveyi BB7M [13]; [17],60 ± 10
same,% inhibition of NQNO mutagenicity,Vibrio harveyi BB7M [13],39%
